The test system of assay [1] is MIN6 cells. Nature of the assay: Insulin secretion of MIN6 cells in KRB, radioimmunoassay (Example 4). It counts as cell-based, rat. The note with it: for high-glucose-stimulated insulin secretion: preincubated 30 minutes, stimulated 1 hour with 16.7 mM glucose.
For the next assay, the system named is islets of Langerhans. As to the kind of experiment: Insulin secretion from isolated islets of Langerhans. Format: cell-based, rats. Particulars: for insulin secretion in islets of Langerhans (insulin secretion percentage): low glucose 3.3 mM, 200 nM glibenclamide, 10 µM olomoucine, fig. 5; for insulin secretion: 10 µM, Ringer solution with a high glucose concentration, fig. 4.

For assay [2], the system named is MIN6 cells. As to the kind of experiment: Insulin secretion of MIN6 cells in Ringer solution (Example 3). Format: cell-based, rat. The note with it: 17.6 mM glucose, 20 µM, 2 hours, fig. 3. How it is done: MIN6 cells capable of secreting insulin (provided by Professor Susumu Seino, Doctral Program in Advanced Biomedical Applications, Department of Cellular and Molecular Medicine, Graduate School of Medicine, Chiba University, 1-33, Yayoi-cho, Inage-ku, Chiba-shi, Chiba, Japan) were cultured in accordance with the method of Mae et al. (American Journal of Physiological Endocrinal Metabolism, 2000, vol. […], pp. 773 to 781). MIN6 cells (5 × 10^5) were in a DMEM medium (GIBCO) and on a 35-mm culture dish (Corning Incorporated), followed by culture for 2 days in an incubator (5% CO2, SANYO).
After culture for 2 hours, insulin contained in medium was detected using an insulin detection kit (Ab Insulin, Eiken Chemical Co., Ltd.) in accordance with protocols for the kit.

For assay [3], the system named is α1C subunit at Ser783 of L-VDCC. As to the kind of experiment: Phosphorylation of Ser783 of the L-VDCC α1C subunit in MIN6 cells (immunoprecipitation, Western blotting). The note with it: MIN6 cells treated with 50 µM olomoucine, fig. 8d. It counts as cell-based, rat. How it is done:
Recombinant cDNA encoding LoopII·III of a human α1C subunit of VDCC was subcloned into pGEX6P (Amersham Bioscience). Serine783 was mutated into alanine according to the manufacturer's instructions (Stratagene). Purified recombinant proteins were phosphorylated in vitro with the use of Cdk5/p35 (Upstate) by a conventional method (Tomizawa, K. et al. J. Cell. Biol. 163, 813-824 (2003)). […] The expression of the phosphorylated α1C subunit at Ser783 was measured using phosphorylation-specific antibodies obtained from serum of a rabbit to which CLARTApSPEKK peptide had been injected. The total amount of the subunits was detected by Western blotting analysis with the use of anti-α1C subunit antibodies (Chemicon).
Immunoprecipitation of Cav1.2 was carried out. Phosphorylation of serine 783 was measured by Western blotting.
A general note: Immunoblotting shows a protein as a band on a membrane.

The test system of assay [4] is MIN6 cells. Nature of the assay: Ca2+ imaging (fura-2) in MIN6 cells. It counts as cell-based, rat. Particulars: 50 µM olomoucine. The method, then: MIN6 cells were cultured in a DMEM containing 15% fetal bovine serum, 25 mM glucose, […] 2-mercaptoethanol, and 2 mM glutamine (Lilla, V. et al. Endocrinology 144, 1368-1379 (2003); and Minami, K. et al. Am. J. Physiol. Endocrinol. Metab. 279, 773-781 (2000)). The cells (1 × 10^6) were seeded on a 35-mm glass bottom dish (IWAKI, Tokyo, Japan), followed by cell proliferation for 48 hours. For Ca^2+ imaging, the cells were preincubated at 37°C for 2 hours in a modified Krebs-Ringer bicarbonate HEPES buffer solution (KRB: 125 mM Nacl, 4.74 mM KCl, 1 mM CaCl2, […] KH2PO4, 5 mM NaHCO3, 25 mM HEPES (pH 7.4), and 0.1% BSA) containing 2.8 mM glucose. […] The resulting solution was replaced with KRB containing 17.6 mM glucose or KRB containing 100 nM glibenclamide. The Ca^2+ level of the cells was using an Axiovert 200 inverted microscope (Carl Zeiss Microlmaging) by a dual excitation wavelength method (340/380).
After washing, the cells were stimulated with 17.6 mM glucose (figs. 7a-1 and 7a-2) or 100 nM glibenclamide (figs. 7b-1 and 7b-2). Ca^2+ concentrations were presented as percentages of 340/380 nm fluorescent emission. The graphs (fgs. 7a-1 and 7b-1) show representative traces of changes in Ca^2+ concentration. The graphs (figs. 7a-2 and 7b-2) show the maximum Ca^2+ influxes. Data for each of 20 to 30 cells were collected after each experiment. The mean value of the total values was calculated and normalized every 3 to 4 experiments (*P < 0.01).

The subject of a further assay is L-VDCC. Nature of the assay: Whole-cell Ca2+ currents via VDCCs of MIN6 cells (electrophysiology). It counts as cell-based, rat. Particulars: 50 µM olomoucine.
The test system of assay [5] is diabetes mouse models KK-Ay. Nature of the assay: Hypoglycemic effects in diabetes mouse models KK-Ay. Particulars: KK-Ay mice, fig. 13. Format: in vivo. The method, then:
8-week-old ale KK-Ay mice (32 individuals, CLEA Japan, Inc.) were divided into groups (8 individuals each) with the proviso that there would be no differences among groups in terms of blood glucose levels, Hypoglycemic effects of roscovitine (LC Laboratories), which is a CDK5 inhibitor, were examined.
In order to prepare roscovitine at doses of 1 mg/kg, 10 mg/kg, and 100 mg/kg, a suspension (0.5% methylcellulose/physiological saline solution) was used. Then, subcutaneous administration of roscovitine was carried out once daily for 2 consecutive weeks. A solvent alone was administered to a control group. Blood glucose levels were measured one day before day 0 and on days 3, 7, 10, and 14 with the use of a blood glucose monitor (Free Style, NIPRO).
In fig. 13, the unit of the vertical axis is indicated by "mg/dL." In fig. 14, the unit of the vertical axis is indicated by "g."

The target in another assay is Cdk5 (Homo sapiens, UniProt Q00535). The note with it: cited from earlier work.
Sequence of Cdk5 (Q00535 whole entry, species assumed): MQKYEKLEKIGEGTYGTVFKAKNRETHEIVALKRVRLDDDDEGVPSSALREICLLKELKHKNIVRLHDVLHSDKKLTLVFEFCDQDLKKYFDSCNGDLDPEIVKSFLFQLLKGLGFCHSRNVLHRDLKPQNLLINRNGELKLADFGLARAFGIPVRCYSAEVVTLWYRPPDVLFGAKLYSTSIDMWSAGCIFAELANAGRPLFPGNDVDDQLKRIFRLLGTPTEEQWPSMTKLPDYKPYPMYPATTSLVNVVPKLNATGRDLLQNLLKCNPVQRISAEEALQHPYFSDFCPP
Sequence of Cdk5 (Q15078 whole entry partner, species assumed): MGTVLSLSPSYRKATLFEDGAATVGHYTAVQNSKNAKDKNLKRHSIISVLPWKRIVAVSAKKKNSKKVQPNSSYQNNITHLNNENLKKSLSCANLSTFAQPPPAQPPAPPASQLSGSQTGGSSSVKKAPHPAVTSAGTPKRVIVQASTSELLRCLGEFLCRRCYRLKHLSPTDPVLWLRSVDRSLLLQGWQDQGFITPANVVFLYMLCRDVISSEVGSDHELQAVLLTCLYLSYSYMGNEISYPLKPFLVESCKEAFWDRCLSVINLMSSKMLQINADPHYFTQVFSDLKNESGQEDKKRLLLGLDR

Protocol for islets of Langerhans: In accordance with Goto et al. (Transplantaion, vol. 43, pp. 725 to 730, 1987), islets of Langerhans were isolated from 6-week-old male Wister rats. The rats were etherized so as to be subjected to thoracotomy. The common bile duct of each rat was removed and a collagenase solution (320 U/ml, Sigma) was slowly injected into the pancreas. Then, the swollen pancreas was excised. The collagenase-containing pancreas was digested at 37°C in a water bath for 30 minutes, followed by dispersion with the use of a pipet. Thereafter, islets of Langerhans were isolated based on the concentration gradient of a Ficoll solution (Amersham Pharmacia). The islets of Langerhans were incubated while being kept at 37°C for 30 minutes in a Ringer solution (119 mM sodium chloride, 4.74 mM potassium chloride, 1.19 mM sodium dihydrogen phosphate, 25 mM sodium bicarbonate, 10 mM HEPES, 2.54 mM calcium chloride, 1.19 mM magnesium chloride, and 0.2% BSA) saturated with a mixed gas of 95% O2 and 5% CO2.
30 minutes after replacement, insulin contained in each stimulation solution was detected using an insulin detection kit (Ab Bead Insulin, Eiken Chemical Co., Ltd.) in accordance with protocols of the kit. The experiment was conducted for each concentration group (n = 6).
30 minutes after replacement, insulin contained in each stimulation solution was using an insulin detection kit (Ab Bead Insulin, Eiken Chemical Co., Ltd.) in accordance with protocols for the kit.
Then, controls (n = 6), samples A (n = 6), samples B (n = 6), and samples C (n = 6) were prepared. […] Further, islets of Langerhans were subjected to ultrasonication for cell disruption, and insulin contents of islets of Langerhans were detected using an insulin detection kit (Ab Bead Insulin, Eiken Chemical Co., Ltd.) in accordance with protocols for the kit in a manner similar to that used above.
In addition, the insulin secretion percentage was calculated by the following formula. Insulin secretion percentage; = (Amount of insulin secreted(μU/ml))/(Amount of insulin in islets of Langerhans(μU/ml)) × 100(%) [formula]

In the case of `CC1=NS(=O)(=O)c2cc(Cl)ccc2N1` [diazoxide], the “Olomoucine-dependant promotion of high-glucose-stimulated insulin secretion” value in the assay on MIN6 cells [1] (100 µM diazoxide, 50 µM olomoucine, 17.6 mM glucose, fig. 6g) is given as “completely suppressed”.

On to `C=C[C@@]1(C)CC(=O)[C@]2(O)[C@@]3(C)[C@@H](O)CCC(C)(C)[C@@H]3[C@H](O)[C@H](OC(C)=O)[C@@]2(C)O1` [forskolin], for which the forskolin-stimulated insulin secretion in the assay with MIN6 cells [1] (10 µM forskolin, 50 µM olomoucine, KRB 2.8 mM glucose, fig. 6h, unit not given) is on record as 122.7 ± 9.3.

As for `COc1ccc(Cl)cc1C(=O)NCCc1ccc(S(=O)(=O)NC(=O)NC2CCCCC2)cc1` [glibenclamide], the “insulin secretion in islets of Langerhans (insulin secretion percentage)” value with islets of Langerhans (30 minutes) is recorded as “significant increase in insulin secretion”. Moreover, the insulin secretion with MIN6 cells [1] (KRB high glucose 17.6 mM, fig. 6f) turned out to be 412.5 ± 35.7 µg/h; in the assay with MIN6 cells [1] (KRB low glucose 2.8 mM, fig. 6e), 116.3 ± 1.0 µg/h.

For the molecule `Cn1cnc2c(NCc3ccccc3)nc(NCCO)nc21` [olomoucine], the “insulin secretion of MIN6 cells” value in the assay on MIN6 cells [2] is recorded as “action of promoting insulin secretion”. The insulin secretion entry with islets of Langerhans is “significantly promoted insulin secretion”. The “insulin secretion of islets of Langerhans” value with islets of Langerhans (3.3 mM glucose (low), olomoucine at different concentrations, 30 minutes, fig. 1) is given as “had no influence at all”. Further, the insulin secretion levels result in the assay with islets of Langerhans (17.3 mM glucose (high), olomoucine at different concentrations, 30 minutes, versus absence of olomoucine, fig. 2) is recorded as “significantly increased”. The “secretion at low glucose levels” value in the assay with islets of Langerhans (isolated islets of Langerhans, fig. 9a) is on record as “did not influence”. Also, in the assay with islets of Langerhans (30 minutes), the “insulin secretion in islets of Langerhans (insulin secretion percentage)” value is given as “did not influence insulin secretion”. The “glucose-stimulated insulin secretion in isolated islets of Langerhans” value in the assay on islets of Langerhans (olomoucine at concentrations shown in fig. 9a) is “promoted glucose-stimulated insulin secretion in a dose-dependent manner”. In addition, the “insulin secretion under low glucose conditions” value with MIN6 cells [1] (2.8 mM glucose, 1 hour, fig. 6c) was “insulin secretion was not promoted”. Moreover, the “insulin secretion induced by forskolin” value with MIN6 cells [1] (effect of 50 µM olomoucine, 10 µM forskolin, 2.8 mM glucose, P > 0.05, fig. 6h) is “did not influence”. The “insulin secretion induced by glibenclamide” value in the assay on MIN6 cells [1] (effect of olomoucine, low glucose 2.8 mM, fig. 6e) is listed as “significantly promoted”. The high-glucose-stimulated insulin secretion result in the assay with MIN6 cells [1] (fig. 6c) was “promoted high-glucose-stimulated insulin secretion in a dose-dependent manner”. Moreover, the “phosphorylation of Ser783” value in assay [3] is given as “decrease in phosphorylation”. The “Ca2+ influxes in the absence of glucose and glibenclamide” value in the assay on MIN6 cells [4] was “did not influence”. Besides, in the assay with MIN6 cells [4] (100 nM glibenclamide, maximum Ca2+ influx normalized, figs. 7b-1 and 7b-2), the “Ca2+ influxes induced by glibenclamide” value is listed as 129 ± 4.5%. The “Ca2+ influxes induced by glucose” value in the assay on MIN6 cells [4] (17.6 mM glucose, maximum Ca2+ influx normalized, figs. 7a-1 and 7a-2) came to 114.4 ± 2.1%. In addition, the “Peak Ca2+ currents” value in the assay on L-VDCC (depolarization to 10 mV, control cells -15.1 ± 1.67 A/F) is listed as -20.1 ± 1.59 A/F. For the same molecule, in the assay with L-VDCC (step pulses from -40 mV to +60 mV, fig. 7c), the “inward Ca2+ currents” value is listed as “enhanced inward Ca^2+ currents”.

For the molecule `CC[C@H](CO)Nc1nc(NCc2ccccc2)c2ncn(C(C)C)c2n1` [roscovitine], the figures for the blood glucose levels entry in assay [5] (1 mg/kg subcutaneous once daily for 2 consecutive weeks), in assay [5] (10 mg/kg subcutaneous once daily for 2 consecutive weeks) and in assay [5] (100 mg/kg subcutaneous once daily for 2 consecutive weeks) were “obvious hypoglycemic effects were not observed”, “obvious hypoglycemic effects were not observed” and “statistically significant decreases”, respectively. The “insulin secretion of MIN6 cells” value in the assay on MIN6 cells [2] is recorded as “promoted”. The high-glucose-stimulated insulin secretion result in the assay on MIN6 cells [1] (fig. 6c) is reported as “also confirmed”.

As to iso-olomoucine, the insulin secretion result is recorded as “did not promote insulin secretion at all” in the assay with islets of Langerhans and “did not influence insulin secretion” in the assay with MIN6 cells [1] (20 µM, fig. 6d). In addition, the Cdk5 inhibitory effect entry at Cdk5 was “does not have a Cdk5 inhibitory effect”.

These data come from patent EP1837033A1, “REMEDY FOR DIABETES CONTAINING Cdk5 INHIBITOR” (Tomizawa, Kazuhito, priority 2004, dated 2006).
